Experimental data as given in patent US8921362B2, “6,7-dialkoxy quinazoline derivatives and methods of treating drug resistant and other tumors” (Natco Pharma Limited, priority 2008, dated 2014).

Tests used:
Test in all cases: KinomeScan
Assay type in all cases: binding
Details in all cases: read-out: % Ctrl @ 10000 nM
[1] = target: T1, ABL1(H396P) (Homo sapiens, UniProt P00519, H396P)
T1 construct: host or cells: E. coli (BL21-derived), T7 phage lysate
How it was run: (§1)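 Steps: grow kinase-tagged T7 phage in BL21-derived E. coli (MOI ~0.1, 32° C., to lysis); clear lysate; mix with blocked ligand beads and compound; elute; titer by qPCR.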

[2] = target: T2, ACVR2B (Homo sapiens, UniProt Q13705)
T2 construct: host or cells: E. coli (BL21-derived), T7 phage lysate
How it was run: as §1

[3] = target: T3, ALK (Homo sapiens, UniProt Q9UM73)
T3 construct: host or cells: E. coli (BL21-derived), T7 phage lysate
How it was run: as §1

[4] = target: T4, CAMK1 (Homo sapiens, UniProt Q14012)
T4 construct: host or cells: E. coli host derived from BL21
How it was run: as §1

[5] = target: T5, CAMKK1 (Homo sapiens, UniProt Q8N5S9)
T5 construct: host or cells: T7 phage in E. coli host derived from BL21
How it was run: as §1

[6] = target: T6, CDK11 (Homo sapiens, UniProt Q9BWU1)
T6 construct: host or cells: T7 phage in E. coli host derived from BL21
How it was run: as §1

[7] = target: T7, CLK3 (Homo sapiens, UniProt P49761)
T7 construct: host or cells: T7 phage in E. coli host derived from BL21
How it was run: as §1

[8] = target: T8, DCAMKL3 (Homo sapiens, UniProt Q9C098)
T8 construct: purchased Ambit Biosciences Corp (KinomeScan); host or cells: T7 phage in E. coli host derived from BL21
T8 sequence (Q9C098 whole entry): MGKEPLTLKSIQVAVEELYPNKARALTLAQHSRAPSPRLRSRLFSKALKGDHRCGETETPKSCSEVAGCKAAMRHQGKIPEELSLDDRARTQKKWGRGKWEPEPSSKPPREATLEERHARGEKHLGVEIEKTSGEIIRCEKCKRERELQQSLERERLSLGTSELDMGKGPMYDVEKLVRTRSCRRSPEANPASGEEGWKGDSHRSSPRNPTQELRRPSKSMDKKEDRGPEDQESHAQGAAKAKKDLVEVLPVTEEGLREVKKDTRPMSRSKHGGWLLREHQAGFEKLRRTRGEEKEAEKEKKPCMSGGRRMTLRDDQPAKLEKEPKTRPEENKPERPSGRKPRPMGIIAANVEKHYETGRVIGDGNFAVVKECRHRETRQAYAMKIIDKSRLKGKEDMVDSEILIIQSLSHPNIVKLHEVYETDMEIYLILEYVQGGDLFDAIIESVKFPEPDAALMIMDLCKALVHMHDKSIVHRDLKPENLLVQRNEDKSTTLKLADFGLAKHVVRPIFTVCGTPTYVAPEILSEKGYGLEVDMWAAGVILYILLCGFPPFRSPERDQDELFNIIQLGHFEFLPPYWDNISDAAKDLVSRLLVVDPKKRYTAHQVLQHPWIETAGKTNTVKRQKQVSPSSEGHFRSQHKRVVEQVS
How it was run: as §1

[9] = target: T9, DDR1 (Homo sapiens, UniProt Q08345)
T9 construct: purchased Ambit Biosciences Corp (KinomeScan); host or cells: T7 phage in E. coli host derived from BL21
T9 sequence (Q08345 19-913): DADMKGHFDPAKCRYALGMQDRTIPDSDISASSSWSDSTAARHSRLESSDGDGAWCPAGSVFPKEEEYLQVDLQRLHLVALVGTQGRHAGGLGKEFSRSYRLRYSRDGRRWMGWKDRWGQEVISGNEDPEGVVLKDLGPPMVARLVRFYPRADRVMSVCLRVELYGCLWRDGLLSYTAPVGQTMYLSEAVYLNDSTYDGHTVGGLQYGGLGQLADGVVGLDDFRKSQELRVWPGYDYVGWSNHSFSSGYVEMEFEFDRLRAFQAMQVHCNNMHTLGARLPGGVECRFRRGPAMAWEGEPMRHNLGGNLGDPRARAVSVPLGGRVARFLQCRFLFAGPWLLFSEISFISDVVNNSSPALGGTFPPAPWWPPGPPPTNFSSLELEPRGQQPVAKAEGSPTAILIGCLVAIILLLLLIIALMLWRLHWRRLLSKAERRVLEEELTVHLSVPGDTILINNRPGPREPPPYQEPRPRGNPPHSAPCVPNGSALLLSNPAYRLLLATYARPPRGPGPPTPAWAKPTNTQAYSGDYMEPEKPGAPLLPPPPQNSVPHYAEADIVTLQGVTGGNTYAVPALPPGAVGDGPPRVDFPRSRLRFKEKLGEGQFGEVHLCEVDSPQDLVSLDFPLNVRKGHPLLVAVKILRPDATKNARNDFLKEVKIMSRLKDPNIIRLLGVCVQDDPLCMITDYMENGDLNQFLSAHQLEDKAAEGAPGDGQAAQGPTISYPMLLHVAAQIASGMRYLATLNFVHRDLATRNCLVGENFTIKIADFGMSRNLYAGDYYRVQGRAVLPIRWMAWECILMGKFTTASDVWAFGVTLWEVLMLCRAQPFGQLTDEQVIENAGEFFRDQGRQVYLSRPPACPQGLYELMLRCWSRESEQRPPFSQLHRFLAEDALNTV
How it was run: as §1

[10] = target: T10, DMPK2 (Homo sapiens, UniProt Q6DT37)
T10 construct: purchased Ambit Biosciences Corp (KinomeScan); host or cells: T7 phage in E. coli host derived from BL21
How it was run: as §1

[11] = target: T11, EGFR(L747-S752del, P753S) (Homo sapiens, UniProt P00533, DEL747-752/P753S)
T11 construct: purchased Ambit Biosciences Corp (KinomeScan); host or cells: T7 phage in E. coli host derived from BL21
How it was run: as §1

[12] = target: T12, FGFR1 (Homo sapiens, UniProt P11362)
T12 construct: host or cells: T7 phage in E. coli host derived from BL21
How it was run: as §1

[13] = target: T13, IKK-beta (Homo sapiens, UniProt O14920)
T13 construct: host or cells: T7 phage grown in E. coli host derived from BL21
T13 sequence (O14920 whole entry): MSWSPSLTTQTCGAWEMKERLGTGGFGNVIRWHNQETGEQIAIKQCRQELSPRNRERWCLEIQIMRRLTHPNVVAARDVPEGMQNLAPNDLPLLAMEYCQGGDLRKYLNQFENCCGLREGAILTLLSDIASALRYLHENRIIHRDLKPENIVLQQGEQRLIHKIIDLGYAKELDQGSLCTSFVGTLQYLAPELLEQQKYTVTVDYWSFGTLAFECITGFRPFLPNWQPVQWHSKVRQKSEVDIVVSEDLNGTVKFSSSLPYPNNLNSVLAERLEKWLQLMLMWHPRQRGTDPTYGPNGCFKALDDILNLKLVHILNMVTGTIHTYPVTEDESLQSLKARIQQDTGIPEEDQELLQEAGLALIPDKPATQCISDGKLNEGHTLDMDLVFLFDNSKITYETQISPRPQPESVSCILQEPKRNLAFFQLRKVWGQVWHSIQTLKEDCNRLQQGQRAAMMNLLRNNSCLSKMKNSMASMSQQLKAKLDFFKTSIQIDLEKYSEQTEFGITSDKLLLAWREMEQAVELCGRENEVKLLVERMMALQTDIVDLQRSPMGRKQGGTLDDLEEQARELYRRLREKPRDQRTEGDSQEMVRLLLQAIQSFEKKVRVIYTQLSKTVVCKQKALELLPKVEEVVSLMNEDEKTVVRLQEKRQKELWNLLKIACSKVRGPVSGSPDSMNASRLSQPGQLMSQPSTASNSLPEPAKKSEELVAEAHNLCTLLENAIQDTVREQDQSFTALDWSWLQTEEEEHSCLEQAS
How it was run: as §1

[14] = target: T14, JAK1(JH1domain-catalytic) (Homo sapiens, UniProt P23458)
T14 construct: JAK1(JH1domain-catalytic); host or cells: T7 phage grown in E. coli host derived from BL21
How it was run: as §1

[15] = target: T15, KIT(D816V) (Homo sapiens, UniProt P10721, D816V)
T15 construct: host or cells: T7 phage grown in E. coli host derived from BL21
T15 sequence (P10721 26-976 D816V): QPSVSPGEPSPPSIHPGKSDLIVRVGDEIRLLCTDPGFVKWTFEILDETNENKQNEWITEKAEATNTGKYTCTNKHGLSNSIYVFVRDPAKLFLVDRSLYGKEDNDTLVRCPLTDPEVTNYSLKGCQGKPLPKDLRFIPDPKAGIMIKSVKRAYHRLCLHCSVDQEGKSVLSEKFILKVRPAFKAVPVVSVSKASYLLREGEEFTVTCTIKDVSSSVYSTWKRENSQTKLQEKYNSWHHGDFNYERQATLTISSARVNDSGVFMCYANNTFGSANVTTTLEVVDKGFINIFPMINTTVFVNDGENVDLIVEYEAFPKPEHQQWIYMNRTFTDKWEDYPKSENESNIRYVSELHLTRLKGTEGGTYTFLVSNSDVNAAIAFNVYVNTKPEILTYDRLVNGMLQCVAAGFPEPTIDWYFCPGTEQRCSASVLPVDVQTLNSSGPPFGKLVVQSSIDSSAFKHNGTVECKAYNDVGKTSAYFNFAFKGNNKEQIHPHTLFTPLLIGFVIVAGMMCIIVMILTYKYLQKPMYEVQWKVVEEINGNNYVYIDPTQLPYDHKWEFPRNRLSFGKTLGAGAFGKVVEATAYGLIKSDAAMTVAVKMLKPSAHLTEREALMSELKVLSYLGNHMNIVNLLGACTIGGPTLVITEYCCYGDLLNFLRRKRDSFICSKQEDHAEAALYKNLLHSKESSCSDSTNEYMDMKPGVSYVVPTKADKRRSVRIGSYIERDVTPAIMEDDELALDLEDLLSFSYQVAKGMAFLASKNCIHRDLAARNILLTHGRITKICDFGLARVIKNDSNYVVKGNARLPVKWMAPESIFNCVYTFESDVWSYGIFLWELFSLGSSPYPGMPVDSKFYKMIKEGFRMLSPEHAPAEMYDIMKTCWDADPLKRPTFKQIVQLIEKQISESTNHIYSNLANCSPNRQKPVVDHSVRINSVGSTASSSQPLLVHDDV
How it was run: as §1

[16] = target: T16, MAP3K3 (Homo sapiens, UniProt Q99759)
T16 construct: host or cells: E. coli host derived from the BL21 strain, infected with T7 phage
T16 sequence (Q99759 whole entry): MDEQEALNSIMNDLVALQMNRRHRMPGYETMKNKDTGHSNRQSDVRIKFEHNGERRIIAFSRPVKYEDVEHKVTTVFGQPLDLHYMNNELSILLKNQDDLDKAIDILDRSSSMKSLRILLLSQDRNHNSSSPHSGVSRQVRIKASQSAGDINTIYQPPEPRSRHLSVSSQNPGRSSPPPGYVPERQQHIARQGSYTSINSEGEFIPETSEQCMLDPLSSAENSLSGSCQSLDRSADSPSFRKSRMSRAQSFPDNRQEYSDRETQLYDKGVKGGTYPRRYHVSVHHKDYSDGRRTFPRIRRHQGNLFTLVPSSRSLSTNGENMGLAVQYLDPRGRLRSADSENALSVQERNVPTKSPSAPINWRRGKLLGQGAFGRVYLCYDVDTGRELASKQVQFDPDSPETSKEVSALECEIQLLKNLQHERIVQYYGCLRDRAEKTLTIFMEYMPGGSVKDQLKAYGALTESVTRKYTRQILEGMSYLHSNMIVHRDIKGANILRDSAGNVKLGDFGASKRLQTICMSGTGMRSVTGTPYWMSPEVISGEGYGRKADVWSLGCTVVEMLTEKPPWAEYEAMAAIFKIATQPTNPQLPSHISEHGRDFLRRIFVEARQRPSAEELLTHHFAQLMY
How it was run: as §1

[17] = target: T17, MAP3K4 (Homo sapiens, UniProt Q9Y6R4)
T17 construct: host or cells: E. coli host derived from the BL21 strain, infected with T7 phage
How it was run: as §1

[18] = target: T18, MARK3 (Homo sapiens, UniProt P27448)
T18 construct: host or cells: E. coli host derived from the BL21 strain, infected with T7 phage
How it was run: as §1

[19] = target: T19, MARK4 (Homo sapiens, UniProt Q96L34)
T19 construct: host or cells: E. coli host derived from the BL21 strain, infected with T7 phage
How it was run: as §1

[20] = target: T20, MKNK2 (Homo sapiens, UniProt Q9HBH9)
T20 construct: host or cells: T7 phage grown in E. coli host derived from BL21
How it was run: as §1

[21] = target: T21, MRCKB (Homo sapiens, UniProt Q9Y5S2)
T21 construct: host or cells: T7 phage grown in E. coli host derived from BL21
How it was run: as §1

[22] = target: T22, PFTAIRE2 (Homo sapiens, UniProt Q96Q40)
T22 construct: host or cells: E. coli host derived from BL21, infected with T7 phage
How it was run: as §1

[23] = target: T23, PHKG2 (Homo sapiens, UniProt P15735)
T23 construct: host or cells: E. coli host derived from BL21, infected with T7 phage
How it was run: as §1

[24] = target: T24, PIK3CG (Homo sapiens, UniProt P48736)
T24 construct: host or cells: T7 phage in E. coli host derived from BL21
How it was run: as §1

[25] = target: T25, RET (Homo sapiens, UniProt P07949)
T25 construct: host or cells: E. coli host derived from BL21, T7 phage display
How it was run: as §1

[26] = target: T26, RIPK4 (Homo sapiens, UniProt P57078)
T26 construct: host or cells: E. coli host derived from BL21, T7 phage display
How it was run: as §1

[27] = target: T27, RPS6KA2(Kin.Dom.-2-C-terminal) (Homo sapiens, UniProt Q15349)
T27 construct: RPS6KA2(Kin.Dom.-2-C-terminal); host or cells: E. coli host derived from BL21, T7 phage display
T27 sequence (Q15349 415-672 limits assumed): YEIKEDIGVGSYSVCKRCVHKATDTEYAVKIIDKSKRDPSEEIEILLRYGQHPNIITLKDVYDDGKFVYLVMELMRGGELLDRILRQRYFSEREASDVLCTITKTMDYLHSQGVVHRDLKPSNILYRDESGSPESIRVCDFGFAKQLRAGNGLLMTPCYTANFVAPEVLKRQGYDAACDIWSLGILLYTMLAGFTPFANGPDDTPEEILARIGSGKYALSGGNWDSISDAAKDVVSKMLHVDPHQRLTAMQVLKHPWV
How it was run: as §1

[28] = target: T28, SgK110 (Homo sapiens, UniProt P0C264)
T28 construct: host or cells: T7 phage grown in E. coli (BL21-derived)
How it was run: as §1

[29] = target: T29, TAOK3 (Homo sapiens, UniProt Q9H2K8)
T29 construct: host or cells: T7 phage grown in E. coli (BL21-derived)
T29 sequence (Q9H2K8 whole entry): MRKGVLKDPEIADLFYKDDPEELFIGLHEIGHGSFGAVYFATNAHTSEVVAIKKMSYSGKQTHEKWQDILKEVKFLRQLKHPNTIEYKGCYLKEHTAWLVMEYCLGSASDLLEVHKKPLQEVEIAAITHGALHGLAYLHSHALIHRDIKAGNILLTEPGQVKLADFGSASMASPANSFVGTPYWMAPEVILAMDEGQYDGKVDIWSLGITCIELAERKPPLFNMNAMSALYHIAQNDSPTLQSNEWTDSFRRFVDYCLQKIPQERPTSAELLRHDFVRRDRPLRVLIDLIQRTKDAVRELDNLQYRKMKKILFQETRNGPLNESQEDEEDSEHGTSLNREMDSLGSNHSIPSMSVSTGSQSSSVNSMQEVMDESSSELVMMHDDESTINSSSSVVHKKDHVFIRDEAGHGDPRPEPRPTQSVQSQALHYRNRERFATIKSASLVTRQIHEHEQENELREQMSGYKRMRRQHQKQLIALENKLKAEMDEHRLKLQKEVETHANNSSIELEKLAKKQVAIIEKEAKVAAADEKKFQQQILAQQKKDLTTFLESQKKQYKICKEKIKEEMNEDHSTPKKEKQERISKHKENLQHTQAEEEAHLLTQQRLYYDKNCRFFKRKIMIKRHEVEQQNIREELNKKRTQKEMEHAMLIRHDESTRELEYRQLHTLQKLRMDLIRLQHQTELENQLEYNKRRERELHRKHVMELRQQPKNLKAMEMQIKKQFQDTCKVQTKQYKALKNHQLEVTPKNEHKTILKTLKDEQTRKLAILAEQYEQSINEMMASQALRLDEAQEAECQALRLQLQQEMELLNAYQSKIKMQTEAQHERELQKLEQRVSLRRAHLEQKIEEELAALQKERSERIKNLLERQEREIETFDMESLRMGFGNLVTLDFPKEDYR
How it was run: as §1

[30] = target: T30, TSSK1B (Homo sapiens, UniProt Q9BXA7)
T30 construct: host or cells: E. coli host derived from BL21, T7 phage
How it was run: as §1

[31] = target: T31, TYK2(JH1domain-catalytic) (Homo sapiens, UniProt P29597)
T31 construct: TYK2(JH1domain-catalytic); host or cells: E. coli host derived from BL21, T7 phage
How it was run: as §1

[32] = target: T32, p38-delta (Homo sapiens, UniProt O15264)
T32 construct: host or cells: E. coli host derived from BL21, infected with T7 phage
How it was run: as §1

With `C#Cc1cccc(Nc2ncnc3cc(OC)c(OCCCN4CCOCC4)cc23)c1` [NRC-2694, N-(3-ethynylphenyl)-7-methoxy-6-[3-(4-morpholinyl)propoxy]-4-quinazolinamine] the remaining binding at 10 µM [1] was 34%, the remaining binding at 10 µM [2] was 63% and the remaining binding at 10 µM [3] was 10%. For the same molecule, the remaining binding at 10 µM [4] was 65%, the remaining binding at 10 µM [5] was 71% and the remaining binding at 10 µM [6] was 87%. For the same molecule, the remaining binding at 10 µM [7] was 45%, the remaining binding at 10 µM [8] was 14% and the remaining binding at 10 µM [9] was 39%. It also gave a remaining binding at 10 µM [10] of 61%, a remaining binding at 10 µM [11] of 0.1% and a remaining binding at 10 µM [12] of 64%. The remaining binding at 10 µM [13] was 51%, the remaining binding at 10 µM [14] was 15% and the remaining binding at 10 µM [15] was 17%. It also gave a remaining binding at 10 µM [16] of 5.9%, a remaining binding at 10 µM [17] of 53% and a remaining binding at 10 µM [18] of 62%. For the same molecule, the remaining binding at 10 µM [19] was 100%, the remaining binding at 10 µM [20] was 16% and the remaining binding at 10 µM [21] was 71%. It also gave a remaining binding at 10 µM [22] of 71%, a remaining binding at 10 µM [23] of 59% and a remaining binding at 10 µM [24] of 78%. The remaining binding at 10 µM [25] was 65%, the remaining binding at 10 µM [26] was 96% and the remaining binding at 10 µM [27] was 78%. The remaining binding at 10 µM [28] was 83%, the remaining binding at 10 µM [29] was 76% and the remaining binding at 10 µM [30] was 93%. The remaining binding at 10 µM [31] was 97% and the remaining binding at 10 µM [32] was 100%.
